Measured values published in patent US12377083B2 (WUHAN LL SCIENCE AND TECHNOLOGY DEVELOPMENT CO., LTD., priority 2019, dated 2025).
Read-outs that look alike come from different tables or passages of the source.

How the values were obtained:
[1] = system: A2058 (human melanoma cells); experiment: A2058 cell scratch (migration) assay with LPA; format: cell-based; conditions: 10 μM LPA, scratch area at 24 h
Description: The activity of the compounds disclosed herein at the cell level in vitro is evaluated by A2058 (human melanoma cells, Beina Bio, BNCC341099) cell scratch assay. The inhibitory activity of the compounds against LPAR1 can be reflected by inhibition of cell scratch healing.
After the cell confluence reached 80%, the cell culture plate was taken out and the original medium was discarded. Serum-free medium was then added, and the cells were starved overnight in an incubator (37° C., 5% CO2). The cell culture plate was then taken out, and cell scratches were made along the diameter of the wells using a 200 μL pipette tip. The cell culture plate was then added with 500 μL of serum-free medium and then shaken gently to wash away the residual cells on the scratched surface, and this was repeated twice. The medium was discarded and 500 μL of 1% FBS medium containing the compound was then added, and the mixture was incubated at 37° C. for 30 min. […] Olympus CKX53 was used to observe the scratches, and MShot image analysis system was used to take pictures and measure the scratch area at 0 h. The plate was incubated in the incubator under the conditions of 37° C. and 5% CO2. 24 h later, the scratches were observed again with Olympus CKX53, and MShot image analysis system was used to take pictures and measure the scratch area at 24 h. Cell migration inhibition rate was calculated according to the following formula: […]

[2] = target: hLPAR1 (human lysophosphatidic acid receptor 1) (Homo sapiens, UniProt Q92633); experiment: FLIPR assay of intracellular calcium increase induced by activation of hLPAR1 expressed in CHO-K1 cells; format: cell-based; conditions: CHO-K1 cells expressing hLPAR1, agonist oleoyl-L-α-lysophosphatidic acid 1 μM
Sequence of hLPAR1 (human lysophosphatidic acid receptor 1) (Q92633 whole entry): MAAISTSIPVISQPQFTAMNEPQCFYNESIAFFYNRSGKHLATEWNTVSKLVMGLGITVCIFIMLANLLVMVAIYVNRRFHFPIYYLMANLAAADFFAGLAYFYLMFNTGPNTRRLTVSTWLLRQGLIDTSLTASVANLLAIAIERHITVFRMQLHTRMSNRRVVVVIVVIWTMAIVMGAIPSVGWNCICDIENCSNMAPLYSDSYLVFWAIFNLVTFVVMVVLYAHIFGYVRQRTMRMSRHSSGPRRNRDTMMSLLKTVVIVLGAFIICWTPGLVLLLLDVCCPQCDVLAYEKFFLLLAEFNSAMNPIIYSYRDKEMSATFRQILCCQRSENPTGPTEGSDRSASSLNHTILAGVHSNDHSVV
Description: The antagonist property of the compounds disclosed herein was determined using the FLIPR (fluorescence imaging plate reader) method, wherein the compounds are inhibitors for the intracellular calcium increase induced by activation of hLPAR1 (human lysophosphatidic acid receptor 1, accession No. NM_001401.4) expressed in CHO-K1 cells (Chinese hamster ovary cells K1, ATCC).
Cells at 250,000 cells/mL were seeded into a 96-well plate (25,000 cells/well) 18-24 h prior to the FLIPR experiment and then incubated overnight in a cell incubator. […] Each well was added with 75 μL of […] Fluo-4 AM fluorescent dye (Thermo, F14202) and then the cells were subjected to dye-loading incubation at 37° C. for 1.0 h. The 96-well plate was then washed once with buffer, added with a buffer containing a test compound or a vehicle at 50 μL per well and then incubated for 30 min at room temperature. […] An agonist (oleoyl-L-α-lysophosphatidic acid sodium salt (Sigma, L7260)) at a final concentration of 1 μM or a vehicle (ultrapure water) was then added at 50 μL/well, fluorescence values were measured for 2 min at 1-second intervals, and finally the output fluorescence counts were analyzed.

Row | SMILES | Cell migration inhibition rate (%) [1] | IC50 ([2]; read-out: LPAR1 IC50) | IC50 ([2]; LPAR1 IC50 (μM))
1 | CN(CC1CC1)C(=O)OCc1c(-c2ccc(O[C@H]3CCC[C@H](C(=O)O)C3)c(F)n2)cnn1C (racemic) [Compound 110, (+/−)-(1S,3S)-3-((6-(5-((((cyclopropylmethyl)(methyl)carbamoyl)oxy)methyl)-1-methyl-1H-pyrazol-4-yl)-2-fluoropyridin-3-yl)oxy)cyclohexane-1-carboxylic Acid] | B (B: 30-50%) | 0.05 to 0.3 µM | –
2 | CN(C(=O)OCc1cnncc1-c1ccc(O[C@H]2CCC[C@H](C(=O)O)C2)cc1)C1CCCC1 (racemic) [Compound 74] | – | 0.3 to 10 µM | –
3 | Cc1nc(-c2cnn(C)c2COC(=O)N(C)C2COC2)ccc1O[C@H]1CCC[C@H](C(=O)O)C1 (racemic) [Compound 64, (+/−)-(1S,3S)-3-((2-methyl-6-(1-methyl-5-(((methyl(oxetan-3-yl)carbamoyl)oxy)methyl)-1H-pyrazol-4-yl)pyridin-3-yl)oxy)cyclohexane-1-carboxylic Acid] | C (C: 0-30%) | 0.3 to 10 µM | –
4 | Cc1noc(-c2ccc(O[C@H]3CCC[C@H](C(=O)O)C3)c(F)c2)c1COC(=O)N(C)C1CCCC1 (racemic) [Compound 86] | – | < 0.05 µM | –
5 | Cc1nc(-c2cnn(C)c2COC(=O)N2CC3CCC(C2)O3)ccc1O[C@H]1CCC[C@H](C(=O)O)C1 (racemic) [Compound 65, (+/−)-(1R,3R)-3-((6-(5-(((8-oxa-3-azabicyclo[3.2.1]octane-3-carbonyl)oxy)methyl)-1-methyl-1H-pyrazol-4-yl)-2-methylpyridin-3-yl)oxy)cyclohexane-1-carboxylic Acid] | C (C: 0-30%) | 0.3 to 10 µM | –
6 | Cc1noc(-c2ccc(O[C@H]3CCC[C@H](C(=O)O)C3)cc2)c1OC(=O)N(C)C1CCCC1 (racemic) [Compound 69] | – | – | 0.3 to 10 µM
7 | Cc1nsc(-c2ccc(O[C@H]3CCC[C@H](C(=O)O)C3)c(C(F)(F)F)n2)c1COC(=O)N(C)C1CCCC1 (racemic) [Compound 84] | – | < 0.05 µM | –
8 | Cc1nc(-c2onc(C)c2COC(=O)N(C)C2CCCC2)ncc1O[C@H]1CCC[C@H](C(=O)O)C1 (racemic) [Compound 91, (+/−)-(1S,3S)-3-((2-(4-(((cyclopentyl(methyl)carbamoyl)oxy)methyl)-3-methylisoxazol-5-yl)-4-methylpyrimidin-5-yl)ox)cyclohexane-1-carboxylic Acid] | C (C: 0-30%) | < 0.05 µM | –
9 | Cc1nc(-c2cnn(C)c2COC(=O)N(C)C2CCOCC2)ccc1O[C@H]1CCC[C@H](C(=O)O)C1 [Compound 95, (1S,3S)-3-((2-methyl-6-(1-methyl-5-(((methyl(tetrahydro-2H-pyran-4-yl)carbamoyl)oxy)methyl)-1H-pyrazol-4-yl)pyridin-3-yl)oxy)cyclohexane-1-carboxylic Acid] | C (C: 0-30%) | 0.3 to 10 µM | –
10 | Cc1noc(-c2ccc(O[C@H]3CCC[C@H](C(=O)O)C3)cn2)c1COC(=O)N(C)C1CC1 (racemic) [Compound 106] | B (B: 30-50%) | 0.3 to 10 µM | –
11 | CN(C(=O)OCc1oncc1-c1ccc(O[C@H]2CCC[C@H](C(=O)O)C2)cc1)C1CCCC1 (racemic) [Compound 72] | – | 0.3 to 10 µM | –
12 | CN(C(=O)OCc1c(-c2cnc(O[C@H]3CCC[C@H](C(=O)O)C3)c(N)n2)cnn1C)C1CCCC1 (racemic) [Compound 94, (+/−)-(1S,3S)-3-((3-amino-5-(5-(((cyclopentyl(methyl)carbamoyl)oxy)methyl)-1-methyl-1H-pyrazol-4-yl)pyrazin-2-yl)oxy)cyclohexane-1-carboxylic Acid] | C (C: 0-30%) | 0.3 to 10 µM | –
13 | Cc1ccn(-c2ccc(O[C@H]3CCC[C@H](C(=O)O)C3)cc2)c1N(C)C(=O)OC1CCCC1 (racemic) [Compound 71] | – | 0.3 to 10 µM | –
14 | Cc1snc(-c2ccc(O[C@H]3CCC[C@H](C(=O)O)C3)cn2)c1COC(=O)N(C)C1CCCC1 (racemic) [Compound 81] | – | 0.05 to 0.3 µM | –
15 | Cc1cnn(-c2ccc(O[C@H]3CCC[C@H](C(=O)O)C3)cc2)c1N(C)C(=O)OC1CCCC1 (racemic) [Compound 70] | – | 0.3 to 10 µM | –
16 | CN(C(=O)OCc1c(-c2ccc(O[C@H]3CCC[C@H](C(=O)O)C3)c(OCCO)n2)cnn1C)C1CCC1 (racemic) [Compound 111] | – | 0.3 to 10 µM | –
17 | CN(CC1CCCC1)C(=O)OCc1c(-c2ccc(O[C@H]3CCC[C@H](C(=O)O)C3)c(F)n2)cnn1C (racemic) [Compound 77] | – | < 0.05 µM | –

Row | SMILES | Cell migration inhibition rate (%) [1] | IC50 ([2]; read-out: LPAR1 IC50) | IC50 ([2]; LPAR1 IC50 (μM))
18 | Cc1snc(-c2ccc(O[C@H]3CCC[C@H](C(=O)O)C3)c(C(F)(F)F)n2)c1COC(=O)N(C)C1CCCC1 [Compound 82] | – | < 0.05 µM | –
19 | Cc1onc(-c2cnc(O[C@H]3CCC[C@H](C(=O)O)C3)c(F)n2)c1COC(=O)N(C)C1CCCC1 (racemic) [Compound 101] | – | < 0.05 µM | –
20 | Cc1nc(-c2onc(C)c2COC(=O)N(C)C2CCCC2)cnc1O[C@H]1CCC[C@H](C(=O)O)C1 (racemic) [Compound 90] | – | < 0.05 µM | –
21 | CN(CC1CCCC1)C(=O)OCc1c(-c2ccc(O[C@H]3CCC[C@H](C(=O)O)C3)c(C#N)n2)cnn1C [Compound 78] | – | 0.05 to 0.3 µM | –
22 | CN(C(=O)OCc1c(-c2ccc(C3CCC[C@H](C(=O)O)C3)cc2)cnn1C)C1CCCC1 (mixture of isomers) [Compound 73] | – | 0.3 to 10 µM | –
23 | CN(C(=O)OCc1cnccc1-c1ccc(O[C@H]2CCC[C@H](C(=O)O)C2)cc1)C1CCCC1 [Compound 75] | – | – | 0.3 to 10 µM
24 | Cc1onc(-c2ccc(O[C@H]3CCC[C@H](C(=O)O)C3)c(C(F)(F)F)n2)c1COC(=O)N(C)C1CCCC1 [Compound 80] | – | < 0.05 µM | –
25 | Cc1nc(-c2cnn(C)c2COC(=O)N2CC3CCC2CO3)ccc1O[C@H]1CCC[C@H](C(=O)O)C1 (mixture of isomers) [Compound 96] | – | 0.3 to 10 µM | –
26 | Cc1nc(-c2c(COC(=O)N(C)C3CCCC3)n(C)[nH]c2=O)ccc1O[C@H]1CCC[C@H](C(=O)O)C1 (racemic) [Compound 99] | – | 0.3 to 10 µM | –
27 | Cc1nc(-c2c(N)nn(C)c2COC(=O)N(C)C2CCCC2)ccc1O[C@H]1CCC[C@H](C(=O)O)C1 (racemic) [Compound 87] | – | 0.05 to 0.3 µM | –
28 | Cc1nc(-c2c(C(F)(F)F)nn(C)c2COC(=O)N(C)C2CCCC2)ccc1O[C@H]1CCC[C@H](C(=O)O)C1 (racemic) [Compound 85] | – | 0.05 to 0.3 µM | –
29 | CN(Cc1ccccc1)C(=O)OCc1oncc1-c1ccc(O[C@H]2CCC[C@H](C(=O)O)C2)cc1 (racemic) [Compound 68] | – | 0.3 to 10 µM | –
30 | CN(C(=O)OCc1cncnc1-c1ccc(O[C@H]2CCC[C@H](C(=O)O)C2)cc1)C1CCCC1 (racemic) [Compound 76] | – | 0.3 to 10 µM | –
31 | CN(C(=O)OCc1c(-c2cnc(O[C@H]3CCC[C@H](C(=O)O)C3)c(F)n2)cnn1C)C1CCCC1 (racemic) [Compound 103, (+/−)-(1S,3S)-3-((5-(5-(((cyclopentyl(methyl)carbamoyl)oxy)methyl)-1-methyl-1H-pyrazol-4-yl)-3-fluoropyrazin-2-yl)oxy)cyclohexane-1-carboxylic Acid] | – | < 0.05 µM | –
32 | Cc1nsc(-c2ccc(O[C@H]3CCC[C@H](C(=O)O)C3)cn2)c1COC(=O)N(C)C1CCCC1 (racemic) [Compound 83] | – | 0.05 to 0.3 µM | –
33 | CN(C(=O)OCc1c(-c2ccc(O[C@H]3CCC[C@H](C(=O)O)C3)c(N3CC(O)C3)n2)cnn1C)C1CCC1 (racemic) [Compound 107] | – | 0.3 to 10 µM | –
34 | Cc1onc(-c2ccc(O[C@H]3CCC[C@H](C(=O)O)C3)cn2)c1COC(=O)N(C)C1CCCC1 (racemic) [Compound 79] | – | < 0.05 µM | –
